Data published in patent US8269026B2, “Lupane derivatives useful for treating HIV” (priority 2008, dated 2012).

Each molecule was assayed on HIV-1 (HIVIIIB) replication in MT2 cell line (assay: HIV-1 replication in MT2 cell line with and without 30% human serum (viral RT activity in supernatant)). Conditions: Human immunodeficiency virus 1, MT2 cells, with 30% human serum, average IC50 if tested more than once, read-out: MT2 (HIVIIIB) with HS 30% IC50 range.
Type: cell-based
Outline: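 Read-out is supernatant reverse transcriptase activity on day 5 post-infection, giving IC50 and IC90. Compounds were titrated in complete medium ± 30% human serum, re-dosed after 3 days, on MT2 cells exposed for 3 h to HIVIIIB at MOI 0.5 then washed.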

Row | Compound | IC50
1 | CC(C)C1=C2C3CCC4[C@@]5(C)CC[C@H](OC(=O)CC(C)(C)C(=O)O)C(C)(C)C5CC[C@@]4(C)[C@]3(C)CC[C@@]2(NC(=O)NCc2ccncn2)CC1=O (stereo partly drawn) [17-52, 3β-O-(3′,3′-Dimethylsuccinyl)-17β-[N′-(pyrimidin-4-ylmethyl)ureido]-21-oxolup-18-ene] | < 199 nM
2 | CC(C)C1=C2[C@H]3CC[C@@H]4[C@@]5(C)CC[C@H](OC(=O)CC(C)(C)C(=O)O)C(C)(C)[C@@H]5CC[C@@]4(C)[C@]3(C)CC[C@@]2(NC(=O)N2CCN(C(=O)OC(C)(C)C)CC2)CC1=O [17-14, 3β-O-(3′,3′-Dimethylsuccinyl)-17β-[(4-tert-butyloxycarbonyl-piperazine-1-carbonyl)-amino]-21-oxolup-18-ene] | < 199 nM
3 | CC(C)C1=C2[C@H]3CC[C@@H]4[C@@]5(C)CC[C@H](OC(=O)CC(C)(C)C(=O)O)C(C)(C)[C@@H]5CC[C@@]4(C)[C@]3(C)CC[C@@]2(NC(=O)[C@@H]2CCCCN2C)CC1=O [19-65, 3β-O-(3′,3′-Dimethylsuccinyl)-17β-((S)-1-methylpiperidine-2-amido)-21-oxolup-18-ene] | < 199 nM
4 | CC(C)C1=C2C3CCC4[C@@]5(C)CC[C@H](OC(=O)CC(C)(C)C(=O)O)C(C)(C)C5CC[C@@]4(C)[C@]3(C)CC[C@@]2(NC(=O)[C@@H]2CCCN2C(C)C)CC1=O (some centres unmarked) [19-56] | < 199 nM
5 | CC(C)C1=C2C3CCC4[C@@]5(C)CC[C@H](OC(=O)CC(C)(C)C(=O)O)C(C)(C)C5CC[C@@]4(C)[C@]3(C)CC[C@@]2(NC(=O)C(C)(C)C)CC1=O (stereo partly drawn) [19-32, 3β-O-(3′,3′-Dimethylsuccinyl)-17β-tert-butylamido-21-oxolup-18-ene] | < 199 nM
6 | CC(C)C1=C2C3CCC4[C@@]5(C)CC[C@H](OC(=O)CC(C)(C)C(=O)O)C(C)(C)C5CC[C@@]4(C)[C@]3(C)CC[C@@]2(NC(=O)N2CC[C@H](N)C2)CC1=O (stereo partly drawn) [17-43, 3β-O-(3′,3′-Dimethylsuccinyl)-17β-[((S)-3-amino-pyrrolidine-1-carbonyl)-amino]-21-oxolup-18-ene] | < 199 nM
7 | CC(C)C1=C2[C@H]3CC[C@@H]4[C@@]5(C)CC[C@H](OC(=O)CC(C)(C)C(=O)O)C(C)(C)[C@@H]5CC[C@@]4(C)[C@]3(C)CC[C@@]2(NC(=O)c2cccnc2O)CC1=O [19-51, 3β-O-(3′,3′-Dimethylsuccinyl)-17β-(2-hydroxypyridin-3-yl)amido-21-oxolup-18-ene] | < 199 nM

Same assay, conditions: Human immunodeficiency virus 1, MT2 cells, without human serum, average IC50 if tested more than once, read-out: MT2 (HIVIIIB) IC50 range

Row | Compound | IC50
8 | CC(C)C1=C2[C@H]3CC[C@@H]4[C@@]5(C)CC[C@H](OC(=O)CC(C)(C)C(=O)O)C(C)(C)[C@@H]5CC[C@@]4(C)[C@]3(C)CC[C@@]2(NC(=O)N2CCN(C(=O)OC(C)(C)C)CC2)CC1=O [17-14, 3β-O-(3′,3′-Dimethylsuccinyl)-17β-[(4-tert-butyloxycarbonyl-piperazine-1-carbonyl)-amino]-21-oxolup-18-ene] | < 199 nM
